Columns and labels:
Experiment in all cases: NCI-60 screen (SRB)
Type in all cases: cell-based
IGROVI = IGROVI (Ovarian)
Outline: (§1)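 Cells grown in RPMI 1640 with 5% FBS were plated, left 24 h, then exposed to five drug concentrations for 48 h at 37 °C. TCA-fixed protein was stained with SRB and read at 515 nm. GI50, TGI and LC50 were derived against time-zero and untreated control absorbances.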

U251 = U251 (CNS)
Outline: as §1

SW-620 = SW-620 (Colon)
Outline: as §1

NCI-H460 = NCI-H460 (Non-Small Cell Lung)
Outline: as §1

A498 = A498 (Renal)
Outline: as §1

786-0 = 786-0 (Renal)
Outline: as §1

HCT-15 = HCT-15 (Colon)
Outline: as §1

NCI-H522 = NCI-H522 (Non-Small Cell Lung)
Outline: as §1

CAKI-1 = CAKI-1 (Renal)
Outline: as §1

TK-10 = TK-10 (Renal)
Outline: as §1

OVCAR-8 = OVCAR-8 (Ovarian)
Outline: as §1

MDA-MB-468 = tested on: MDA-MB-468
Outline: as §1

SR = SR (Leukemia)
Outline: as §1

KM12 = KM12 (Colon)
Outline: as §1

M14 = M14 (Melanoma)
Outline: as §1

NCI-H226 = NCI-H226 (Non-Small Cell Lung)
Outline: as §1

MDA-MB-231/ATCC = MDA-MB-231/ATCC (Breast)
Outline: as §1

[1] = Homo sapiens, read-out: LC50 (the source's name)

Compound: CCN(CC)C1CCN(C(C)c2cc(-c3ccccc3)nc3ccccc23)CC1.Cl.Cl (stereo not shown) [XIX-3, 2-phenyl-4-{1-[4-(N,N-diethylamino)piperidin-1-yl]-eth-1-yl}quinoline dihydrochloride]
- GI50 (IGROVI; Homo sapiens): 5 µM
- CC50 (IGROVI; [1]): 63 µM
- TGI (IGROVI): 21 µM
- Growth percent at 10 μM (IGROVI): ++ (cell growth 40 > % < 60)
- GI50 (U251; Homo sapiens, U-251): 6 µM
- CC50 (U251; Homo sapiens, U-251, read-out: LC50 (the source's name)): 49 µM
- TGI (U251): 20 µM
- Growth percent at 10 μM (U251): +++ (cell growth 20 > % < 40)
- GI50 (SW-620; Homo sapiens): 4 µM
- CC50 (SW-620; [1]): 45 µM
- TGI (SW-620): 17 µM
- Growth percent at 10 μM (SW-620): ++ (cell growth 40 > % < 60)
- GI50 (NCI-H460; Homo sapiens): 7 µM
- CC50 (NCI-H460; [1]): 54 µM
- TGI (NCI-H460): 22 µM
- Growth percent at 10 μM (NCI-H460): + (cell growth 60 > % < 80)
- TGI (A498): 20 µM
- Growth percent at 10 μM (A498): ++ (cell growth 40 > % < 60)
- GI50 (A498; Homo sapiens): 5 µM
- LC50 (A498; Homo sapiens): 54 µM
- TGI (786-0): 23 µM
- Growth percent at 10 μM (786-0): ++ (cell growth 40 > % < 60)
- GI50 (786-0; Homo sapiens): 8 µM
- CC50 (786-0; [1]): 54 µM
- TGI (HCT-15): 14 µM
- Growth percent at 10 μM (HCT-15): ++++ (cell growth % < 20)
- GI50 (HCT-15; Homo sapiens): 3 µM
- CC50 (HCT-15; [1]): 47 µM
- GI50 (NCI-H522; Homo sapiens): 15 µM
- CC50 (NCI-H522; [1]): 66 µM
- TGI (NCI-H522): 32 µM
- Growth percent at 10 μM (NCI-H522): +++ (cell growth 20 > % < 40)
- TGI (CAKI-1): 28 µM
- Growth percent at 10 μM (CAKI-1): + (cell growth 60 > % < 80)
- GI50 (CAKI-1; Homo sapiens): 13 µM
- CC50 (CAKI-1; [1]): 58 µM
- GI50 (TK-10; Homo sapiens): 13 µM
- LC50 (concentration causing 50% net cell kill) (TK-10; Homo sapiens): 26 µM
- TGI (TK-10): 26 µM
- Growth percent at 10 μM (TK-10): − (cell growth % > 80)
- GI50 (OVCAR-8; Homo sapiens): 14 µM
- CC50 (OVCAR-8; [1]): 62 µM
- TGI (OVCAR-8): 30 µM
- Growth percent at 10 μM (OVCAR-8): + (cell growth 60 > % < 80)
- CC50 (MDA-MB-468; Homo sapiens, MDA-MB-468, read-out: LC50): 38 µM
- GI50 (MDA-MB-468; Homo sapiens, MDA-MB-468 (Breast)): 3 µM
- TGI (MDA-MB-468; MDA-MB-468 (Breast)): 10 µM
- Growth percent at 10 μM (MDA-MB-468; MDA-MB-468 (Breast)): +++ (cell growth 20 > % < 40)
- GI50 (SR; Homo sapiens): 3 µM
- CC50 (SR; [1]): 49 µM
- TGI (SR): 7 µM
- Growth percent at 10 μM (SR): × (cell growth 0 > % > −20)
- GI50 (KM12; Homo sapiens): 10 µM
- CC50 (KM12; [1]): 50 µM
- TGI (KM12): 22 µM
- Growth percent at 10 μM (KM12): ++ (cell growth 40 > % < 60)
- GI50 (M14; Homo sapiens): 2 µM
- CC50 (M14; [1]): 8 µM
- TGI (M14): 4 µM
- Growth percent at 10 μM (M14): ××× (cell growth −40 > % < −60)
- GI50 (NCI-H226; Homo sapiens): 19 µM
- CC50 (NCI-H226; [1]): 74 µM
- TGI (NCI-H226): 38 µM
- Growth percent at 10 μM (NCI-H226): − (cell growth % > 80)
- GI50 (MDA-MB-231/ATCC; Homo sapiens): 3 µM
- CC50 (MDA-MB-231/ATCC; [1]): 47 µM
- TGI (MDA-MB-231/ATCC): 14 µM
- Growth percent at 10 μM (MDA-MB-231/ATCC): ++ (cell growth 40 > % < 60)

Compound: CC(C)(C)NC1CCN(c2cc(-c3ccc(Cl)cc3)nc3ccccc23)CC1.Cl.Cl [XII-4, 2-(4-chloro-phenyl)-4-(4-N-tert-butylamino-piperidin-1-yl)quinoline dihydrochloride]
- Growth percent at 10 μM (IGROVI): ++ (cell growth 40 > % < 60)
- Growth percent at 10 μM (U251): ++ (cell growth 40 > % < 60)
- Growth percent at 10 μM (SW-620): ++++ (cell growth 0 > % < 20)
- Growth percent at 10 μM (NCI-H460): ++ (cell growth 40 > % < 60)
- Growth percent at 10 μM (A498): +++ (cell growth 20 > % < 40)
- Growth percent at 10 μM (786-0): ++ (cell growth 40 > % < 60)
- Growth percent at 10 μM (HCT-15): ++++ (cell growth 0 > % < 20)
- Growth percent at 10 μM (NCI-H522): + (cell growth 60 > % < 80)
- Growth percent at 10 μM (CAKI-1): +++ (cell growth 20 > % < 40)
- Growth percent at 10 μM (TK-10): − (cell growth % > 80)
- Growth percent at 10 μM (OVCAR-8): − (cell growth % > 80)
- Growth percent at 10 μM (MDA-MB-468; MDA-MB-468 (Breast)): ×× (cell growth −20 < % > −40)
- Growth percent at 10 μM (SR): ++++ (cell growth 0 > % < 20)
- Growth percent at 10 μM (KM12): + (cell growth 60 > % < 80)
- Growth percent at 10 μM (M14): ×××× (cell growth −60 < % > −80)
- Growth percent at 10 μM (NCI-H226): − (cell growth % > 80)
- Growth percent at 10 μM (MDA-MB-231/ATCC): ×× (cell growth −20 < % > −40)
